Consider 29 molecules from ChEMBL document CHEMBL5523703, “Modulators for palmitoylation of proteins and small molecules” (Eur J Med Chem, 2024).

As usually defined, the IC50 is the concentration needed to halve the response being measured. In general, inhibition refers to the relative decrease from the control value, in per cent. Lower therefore signals a weak effect.

Tested on in one assay: not listed separately
Nature of the assay: Inhibition of SPT (unknown origin).
Settings: not given
The arrangement: species or system Homo sapiens.
As for `CC(C)CCCC(=O)CCCCCCC(=O)CCN(O)C(=O)[C@@H](N)CO`, half-maximal inhibition (IC50) was put at 21 nM.
On the same count and under the same terms, next, `CCCCCC[C@@H](O)CCCCCCCCC[C@H](CO)C(=O)O`: 24 nM; `CCCCCC[C@@H](O)CCCCCCCC[C@@H](O)[C@H](N)C(=O)O`: 224 nM; `CCCCCC[C@@H](O)CCCCCC/C=C/[C@H](O)[C@@H](O)[C@H](O)[C@H](N)C(=O)O`: 20 nM.
The same measure, in the same setting: next, `CCCCCC[C@@H](O)CCCCCC/C=C/[C@H](OC(C)=O)[C@@H](O)[C@H](O)[C@H](N)C(=O)O`: 100 nM.

For another assay, the species on record is Homo sapiens. Nature of the assay: Inhibition of ZDHHC (unknown origin) at 20 uM relative to control.
Settings: not given
Consider `N#CCC(=O)NCCc1ccc(OC(=O)c2cccc(Oc3ccccc3)c2)cc1`, for which the inhibition came out at 71.3%.
Still for that read-out and setting: next, `C=CC(=O)N(C)CCCCCCCCCCCCCC`: 67.3%.

The target in a further assay is T1, Phosphatidylserine lipase ABHD16A (Homo sapiens, UniProt O95870).
T1 sequence (O95870 whole entry): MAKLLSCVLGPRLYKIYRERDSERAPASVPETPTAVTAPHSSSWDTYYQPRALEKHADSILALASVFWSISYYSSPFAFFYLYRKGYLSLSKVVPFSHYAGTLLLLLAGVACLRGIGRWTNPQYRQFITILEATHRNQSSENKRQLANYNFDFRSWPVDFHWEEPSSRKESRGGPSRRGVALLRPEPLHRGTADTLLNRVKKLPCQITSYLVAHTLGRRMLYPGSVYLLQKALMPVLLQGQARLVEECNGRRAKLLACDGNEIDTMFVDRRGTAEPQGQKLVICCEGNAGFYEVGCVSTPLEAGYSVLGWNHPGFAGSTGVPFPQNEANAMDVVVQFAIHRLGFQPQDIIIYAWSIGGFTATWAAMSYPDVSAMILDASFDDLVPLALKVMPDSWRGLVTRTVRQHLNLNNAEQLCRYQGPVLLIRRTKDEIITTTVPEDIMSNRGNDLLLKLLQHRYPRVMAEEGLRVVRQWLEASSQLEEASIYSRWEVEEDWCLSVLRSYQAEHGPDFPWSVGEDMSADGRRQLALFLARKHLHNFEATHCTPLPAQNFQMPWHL
Nature of the assay: Inhibition of recombinant human ABHD16A expressed in HEK293T cells incubated for 1 hr by fluorescence based analysis. In kind it is cell-based.
Settings: not given
As to `NC(=O)CCCC/C=C1\C(=O)OC1CCc1ccccc1` (centres undefined), the IC50 was ≥ 10000 nM.
The same measure, in the same setting: in the case of `COc1nn(-c2ccc(F)cc2)c(=O)o1` it was 30 nM; in that of `CCCCCCCCCCCCCC1OC(=O)/C1=C\CCCCC(N)=O` (centres undefined), 200 nM.
Same read-out and setting: next, `COc1nn(-c2cccc([N+](=O)[O-])c2)c(=O)o1`: 60 nM.

Tested on in the next assay: not listed separately
Nature of the assay: cells. To be noted: Homo sapiens, HEK-293T, 24 h.
Molecule `Cn1c(=O)c2c(ncn2CC(=O)Nc2ccc(-c3ccccc3)nn2)n(C)c1=O` [ETC-159] had an IC50 of 2.9 nM.
Still for that read-out and setting: in the case of `Cc1cc(-c2ncc(CC(=O)Nc3ccc(-c4cnccn4)cn3)cc2C)ccn1` [WNT-974] it was 0.2 nM; in that of `Cc1c(-c2ccnc(C(F)(F)F)c2)ncn1CC(=O)Nc1ccc(-c2cnccn2)cn1` [ZAMAPORVINT], 0.064 nM.

The target in a further assay is Acyl-protein thioesterase 2 (Homo sapiens, UniProt O95372). Nature of the assay: Inhibition of APT2 (unknown origin).
Chain of Acyl-protein thioesterase 2 (O95372 whole entry): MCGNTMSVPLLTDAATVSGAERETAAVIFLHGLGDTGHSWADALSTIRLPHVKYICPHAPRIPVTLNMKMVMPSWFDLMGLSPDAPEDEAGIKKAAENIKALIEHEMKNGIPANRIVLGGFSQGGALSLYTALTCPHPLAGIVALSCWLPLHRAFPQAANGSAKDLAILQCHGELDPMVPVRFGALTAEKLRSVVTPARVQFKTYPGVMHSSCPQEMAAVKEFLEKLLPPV
Settings: not given
`C#CCCCCCCCC[C@@H]1C(=O)O[C@H]1CCc1ccc(OC)c(OC)c1` had an IC50 of 23.7 nM.
On the same count and under the same terms, in the case of `CCCCCCCCCC[C@@H]1C(=O)O[C@H]1CCc1ccc(OC)c(OC)c1` [PALMOSTATIN B] it was 19.6 nM.
Still for that read-out and setting: next, `C#CCCCCCCCC[C@@H]1OC(=O)[C@H]1CCCCS(=O)(=O)CCCN(C)C`: 32.4 nM; `C#CCCCN(C)CCCS(=O)(=O)CCCC[C@@H]1C(=O)O[C@H]1CCCCCCCCCC`: 64.4 nM.
Molecule `CCCCCCCCCC[C@@H]1OC(=O)[C@H]1CCCCS(=O)(=O)CCCN(C)C` returned a half-inhibitory concentration (IC50) of 36.7 nM.

A further assay concerns the target T2, Palmitoyl-protein thioesterase ABHD10, mitochondrial (Homo sapiens, UniProt Q9NUJ1).
T2 sequence (Q9NUJ1 whole entry): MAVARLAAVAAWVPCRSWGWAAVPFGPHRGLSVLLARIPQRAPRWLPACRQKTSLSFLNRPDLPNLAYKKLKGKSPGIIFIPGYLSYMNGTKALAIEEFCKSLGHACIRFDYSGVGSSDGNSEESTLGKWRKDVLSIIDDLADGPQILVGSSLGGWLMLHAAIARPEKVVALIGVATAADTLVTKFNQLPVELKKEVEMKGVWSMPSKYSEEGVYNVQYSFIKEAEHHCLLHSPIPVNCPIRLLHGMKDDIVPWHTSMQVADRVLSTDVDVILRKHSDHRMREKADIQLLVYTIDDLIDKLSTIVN
Nature of the assay: Inhibition of ABHD10 (unknown origin).
Settings: not given
For `CC[C@@]1(c2ccc(C)cc2)C(=O)N(C(=O)OC(C)C)N1C(=O)OC(C)C`, inhibition was half-maximal at 30 nM (IC50).
In turn, `COc1ccc([C@@]23Oc4cc(OC)cc(OC)c4[C@]2(O)[C@@H]2OC(=O)[C@@H]2[C@H]3c2ccccc2)cc1` displayed an IC50 of 100 nM.
Still for that read-out and setting: in the case of `CC[C@@]1(c2cccc(C)c2)C(=O)N(C(=O)OC)N1C(=O)OC` it was 210 nM.

Tested on in a further assay: not listed separately
Nature of the assay: Inhibition of Wnt/beta-catenin signalling in HEK293 cells assessed as reduction in luciferase activity incubated for 24 hrs by TOPFlash luciferase reporter assay. In kind it is cell-based. As to conditions: Homo sapiens, HEK293, 24 h. (In general: Reporter assays use an easily measured gene product as a stand-in for the process of interest.)
For `COc1ccc(-n2nc(C(=O)NCC(=O)Nc3nc4ccc(OC)cc4s3)c3ccccc3c2=O)cc1`, the IC50 was found to be 58 nM.
Same read-out and setting: in the case of `CCOc1ccc(NC(=O)CSc2nnc(-c3ccncc3)n2-c2ccccc2)cc1` it was 90 nM; in that of `CCc1cc(=O)oc2c(C)c(OCC(=O)Nc3ccc(N4CCCCC4)cc3)ccc12`, 710 nM; in that of `CC(C)Cc1c(C#N)c(N)nc(SCC(=O)c2ccc(-c3ccccc3)cc2)c1C#N`, 10 nM.
Still for that read-out and setting: in the case of `O=S(=O)(c1ccc2oc(-c3cccnc3)nc2c1)c1ccc2oc(-c3cccnc3)nc2c1` it was 16 nM.
For the molecule `Cc1ccc2nc(NC(=O)CSc3nc4c(c(=O)n3-c3ccccc3)SCC4)sc2c1`, the half-maximal inhibitory concentration (IC50) turned out to be 28 nM.
With `Cc1ccc2nc(NC(=O)CSc3nc4c(c(=O)n3C)SC(C)C4)sc2c1` (centres undefined), the half-maximal inhibitory concentration (IC50) was 15 nM.
